Read-outs that look alike come from different tables or passages of the source. Marks after values point to notes of the source that are not given here.
How the values were obtained:
[1] = PK profile in C57BL/6J mice (plasma, brain); type: in vivo, mouse; details: for Kp / half-life / AUC(0-t) / Cmax / MRT last / Tmax / AUC(0-inf): male, C57BL/6J, mouse; for Kp: brain/plasma, read-out: Brain/Plasma ratio (AUCINF); for AUC(0-inf): read-out: AUCINF—obs
Method: PK Profile in Mice. To evaluate the full PK profile for I-1 in mice, plasma and brain samples were determined in male C57BL/6J mice following subcutaneous (s.c.) and oral (p.o.) administration at 3 mg/kg (see Table 7 and FIGS. 54A and 54B). In a typical experiment, blood was collected via cardiac puncture (N=3 animals per time point, 9 time points) up to 24 hours post dose. Plasma and brain concentrations were determined using LC-MS/MS and PK parameters were determined using a non-compartmental analysis (NCA) using Phoenix WinNonlin Pro (v8.3.1, Pharsight, Inc, USA) software.

[2] = biological target: 5-HT2A receptor (Homo sapiens (Human), UniProt P28223); assay: 5-HT2A radioligand binding ([125I](±)DOI)
[3] = system: C57BL/6J mice; assay: HTR time course after s.c. administration in C57BL/6J mice; type: in vivo, mouse
Method: 5-HT2 agonist activity and relative duration of action in vivo of test compounds were assessed using the HTR assay in male, adult C57BL/6J mice (Jackson Laboratories). Mice were housed in standard laboratory cages with ad libitum access to food and water, and were acclimated to the vivarium for at least one week prior to testing in a procedure room. On the day of testing, mice were acclimated to the procedure room in their home cages for ≥60 min before administration of test compounds. Mice were injected subcutaneously, placed immediately thereafter in a clear, polycarbonate box (46×20×20 cm), and HTRs were counted at 5, 10, 15, 40, 120, 160, 200, 240, 280, 320, 360, and 1440 min, using hand-held tally counters, by two trained observers who were blind to treatment.

[4] = Brain protein binding; type: in vitro ADME; details: dilute brain homogenate
From the text: The CSF concentrations were only 20% of that found in plasma. Concomitantly CSF concentrations were 1.6% of brain concentrations. The CSF/brain ratio corroborates brain protein binding experiments in which the free fraction of compound I-1 in dilute brain homogenate was 1.4%.

[5] = biological target: MAO-A (Homo sapiens (Human), UniProt P21397); assay: Recombinant human MAO-A activity (stability); type: in vitro ADME; details: hrMAO 0.02 mg/mL, read-out: MAO-A, t1/2
MAO-A, sequence (P21397 whole entry, looked up): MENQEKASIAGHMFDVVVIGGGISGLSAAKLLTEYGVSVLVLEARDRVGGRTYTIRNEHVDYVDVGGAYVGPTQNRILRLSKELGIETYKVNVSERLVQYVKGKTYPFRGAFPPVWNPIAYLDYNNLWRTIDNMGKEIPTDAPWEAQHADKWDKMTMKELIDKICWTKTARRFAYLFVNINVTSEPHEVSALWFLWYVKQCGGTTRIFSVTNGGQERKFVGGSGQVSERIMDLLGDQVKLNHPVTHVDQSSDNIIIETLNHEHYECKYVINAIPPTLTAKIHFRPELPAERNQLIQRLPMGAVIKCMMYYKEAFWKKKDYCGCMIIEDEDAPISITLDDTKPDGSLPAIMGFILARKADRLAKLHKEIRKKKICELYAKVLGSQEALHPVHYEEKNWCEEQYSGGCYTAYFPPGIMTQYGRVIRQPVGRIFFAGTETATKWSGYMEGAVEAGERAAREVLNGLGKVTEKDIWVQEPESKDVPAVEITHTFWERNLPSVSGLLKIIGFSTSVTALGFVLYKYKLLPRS
Method: hrMAO-A and MAO control were purchased from XenoTech. The reaction mixture was prepared as described below. The test compound was added into the reaction mixture at a final concentration of 1 μM or co-dosed with their deuterated analog at 1 μM each. The positive control kynuramine (25 μM) was run simultaneously with the test compound in a separate reaction. The reaction mixture (without test compounds or kynuramine) was equilibrated in a shaking water bath at 37° C. for 5 minutes. The reaction was initiated by the addition of the test compound or kynuramine, and the mixture was incubated in a shaking water bath at 37° C. Aliquots (150 μL) of the test compound reaction mixture were withdrawn at 0, 5, 10, 20, 30, 60, and 120 minutes. Aliquots (150 μL) of the positive control reaction mixture were withdrawn at 0 and 30 minutes. Test compound(s) and kynuramine samples were immediately combined with 150 μL of ice-cold 100% acetonitrile containing 0.1% formic acid and internal standard (0.2 μM metoprolol) to terminate the reaction. The samples were then mixed and centrifuged to precipitate proteins. All samples were assayed by LC-MS/MS. The peak area response ratio (PARR) of analyte to internal standard at each time point was compared to the PARR at time 0 to determine the percent remaining at each time point. Half-lives were calculated using GraphPad software, fitting to a single-phase exponential decay equation.

[6] = system: mice; assay: Head-twitch response (HTR) screening in mice; type: in vivo, mouse
Method: Protocols were followed according to Canal C E, Morgan D. Head-twitch response in rodents induced by the hallucinogen 2,5-dimethoxy-4-iodoamphetamine: a comprehensive history, a re-evaluation of mechanisms, and its utility as a model. […] Mice were housed in standard laboratory cages with ad libitum access to food and water and were acclimated to the vivarium for at least one week prior to testing in a procedure room. In a typical experiment, mice were injected 3 mg/kg of test article subcutaneously. Mice were placed immediately thereafter in a clear, polycarbonate box (46×20×20 cm), and HTRs were counted at various time points after administration using hand-held tally counters. In a separate experiment, plasma and brain samples were collected at 15 and 160 minutes after administration of test compounds to measure plasma and brain concentrations. Quantification was performed using LC-MS/MS method (LLOQ, 9 nM).

[7] = biological target: 5-HT1A receptors (Homo sapiens (Human), UniProt P08908); assay: 5-HT1A receptor function; type: cell-based
Method: I-1 was also a potent 5-HT2 agonist, but at 10 μM, it inhibited >80% radioligand binding to nine other targets (see Table 6). […] I-1 inhibited <90% of radioligand binding to the other seven off-targets.

COc1cc(SC(F)(F)F)c(OC)cc1CCN [Compound I-1, 2-(2,5-dimethoxy-4-((trifluoromethyl)thio)phenyl)ethan-1-amine]
AUCINF ([1]; brain, p.o. 3 mg/kg): 16171 ng·h/g
T1/2 ([1]; brain, p.o. 3 mg/kg): 2.73 h
peak brain concentration ([1]; brain, p.o. 3 mg/kg): 2366 ng/g
AUCINF ([1]; brain, s.c. 3 mg/kg): 22487 ng·h/g
T1/2 ([1]; brain, s.c. 3 mg/kg): 3.15 h
peak brain concentration ([1]; brain, s.c. 3 mg/kg): 3165 ng/g
Kp ([1]; po, p.o. 3 mg/kg): 25.8
Kp ([1]; sc, s.c. 3 mg/kg): 30.7
half-life ([1]; plasma and brain, other: subcutaneous and oral (range over both routes), 3 mg/kg, across route of administration and tissue, read-out: elimination T1/2): 2.73 to 3.92 h
AUC(0-t) ([1]; po, brain, p.o. 3 mg/kg): 16100 ng·h/mL
Cmax ([1]; po, brain, p.o. 3 mg/kg): 2370 ng/mL
MRT last ([1]; po, brain, p.o. 3 mg/kg): 5.35 h
Tmax ([1]; po, brain, p.o. 3 mg/kg): 1 h
AUC(0-inf) ([1]; po, brain, p.o. 3 mg/kg): 16200 ng·h/mL
half-life ([1]; po, brain, p.o. 3 mg/kg, read-out: T1/2 (converted)): 2.73 h
AUC(0-t) ([1]; po, plasma, p.o. 3 mg/kg): 625 ng·h/mL
Cmax ([1]; po, plasma, p.o. 3 mg/kg): 175 ng/mL
MRT last ([1]; po, plasma, p.o. 3 mg/kg): 3.01 h
Tmax ([1]; po, plasma, p.o. 3 mg/kg): 1 h
AUC(0-inf) ([1]; po, plasma, p.o. 3 mg/kg): 784 ng·h/mL
half-life ([1]; po, plasma, p.o. 3 mg/kg, read-out: T1/2 (converted)): 3.3 h
AUC(0-t) ([1]; sc, brain, s.c. 3 mg/kg): 22500 ng·h/mL
Cmax ([1]; sc, brain, s.c. 3 mg/kg): 3160 ng/mL
MRT last ([1]; sc, brain, s.c. 3 mg/kg): 4.89 h
Tmax ([1]; sc, brain, s.c. 3 mg/kg): 2 h
AUC(0-inf) ([1]; sc, brain, s.c. 3 mg/kg): 22500 ng·h/mL
half-life ([1]; sc, brain, s.c. 3 mg/kg, read-out: T1/2 (converted)): 3.15 h
AUC(0-t) ([1]; sc, plasma, s.c. 3 mg/kg): 731 ng·h/mL
Cmax ([1]; sc, plasma, s.c. 3 mg/kg): 188 ng/mL
MRT last ([1]; sc, plasma, s.c. 3 mg/kg): 2.96 h
Tmax ([1]; sc, plasma, s.c. 3 mg/kg): 0.08 h
AUC(0-inf) ([1]; sc, plasma, s.c. 3 mg/kg): 1000 ng·h/mL
half-life ([1]; sc, plasma, s.c. 3 mg/kg, read-out: T1/2 (converted)): 3.92 h
% Frelative po (AUCINF) ([1]; plasma, oral relative to subcutaneous): 78.3%
T1/2 ([1]; plasma, s.c. 3 mg/kg): 3.92 h
inhibition at 10 µM [2]: > 80%
binding selectivity for 5-HT2A over 5-HT2B ([2]; Ki, [125I]DOI): ~19 fold
Ki ([2]; radioligand [125I](±)DOI): 0.35 nM
HTR, dose-response ([3]; 0.1, 0.3, 1, 3 mg/kg s.c.): robust dose-dependent HTR
HTR duration versus DOI ([3]; DOI 1 mg/kg s.c.): persisted longer
fraction unbound [4]: 0.014
half-life at 1 μM [5]: > 2 h
HTR 15-25 min ([6]; calculated using 0-5 min): 27.4 #
HTR 160-170 min ([6]; calculated using 3 min time bin): 30.4 ###
EC50 [7]: 88 nM

Source: patent publication US20250236589A1, “THERAPEUTIC PHENETHYLAMINE COMPOSITIONS AND METHODS OF USE” (Cybin IRL Limited, priority 2022, published 2025)
